Cytotoxicity data for 71 compounds are collected here from ChEMBL document CHEMBL3507680, “University of Dundee, Gates Library screen for HepG2 cell viability”.

A short description of the series: Human HepG2 cell viability assay in 384 well format. Type of series: toxicity, cell-based. Set-up: dose 125 nL, time 70.5 hour; cytotoxicity at 70.5 h: concentration not given beside the values. Conditions: HepG2 cells, read-out: Inhibition.
Take `Cn1c(=O)c2c(n3ncnc13)NC(=O)CC2c1cccc(Br)c1` (stereo unspecified): the cytotoxicity at 70.5 h is -9.38%. For `CC(C)N1Cc2cccc(NCC(=O)N(C)C3CCCCC3)c2C1`, the cytotoxicity at 70.5 h is -0.0699%.

Turning to `c1cnnc(N2CCCC2CNCc2nc(C3CC3)no2)c1` (stereo unspecified), the cytotoxicity at 70.5 h is -11.8%.

Regarding `Cc1cc2c(cc1CN1CCCCC1CCn1ccnc1C)OCO2` (stereo unspecified), the cytotoxicity at 70.5 h is -1.13%. With `CC(NCCc1nccn1Cc1ccccc1)c1ccsc1` (stereo unspecified), the cytotoxicity at 70.5 h is -10.7%. Take `COc1cc(NC(=O)NC2CCOCC2)ccc1N1CCOC1=O`: the cytotoxicity at 70.5 h was found to be 6.14%. Turning to `O=C(c1cccnc1)N1C[C@H]2CN(Cc3cccc(F)c3)C(=O)[C@H]2C1`, the cytotoxicity at 70.5 h is -3.89%. `CCc1oc2ccc(NS(=O)(=O)CC)cc2c1C(=O)OC`: the cytotoxicity at 70.5 h was -5.49%. As to `Cc1ccc([C@@H]2CN(C(=O)c3ccccc3C)C[C@H]2N(C)C)cc1`, the cytotoxicity at 70.5 h was 2.46%. As for `O=C(c1[nH]nc2c1CCCC2)N1CCC(OCCN2CCCCC2)C1` (stereo unspecified), the cytotoxicity at 70.5 h is -2.83%. For the compound `Cc1cc(NCCSc2nccn2C)n2ncnc2n1`, the cytotoxicity at 70.5 h is 17.1%. `COc1ccc(C(=O)N(C)Cc2cccc(C#N)c2)c(OC)c1OC`: the cytotoxicity at 70.5 h is -5.18%.

For the compound `CC(C)N(CC(N)=O)Cc1cccc(Br)c1`, the cytotoxicity at 70.5 h was determined as 1.5%.

Take `CCC(CO)N(Cc1ccco1)C(=O)c1ccc(F)cc1Cl` (stereo unspecified): the cytotoxicity at 70.5 h is -2.27%. Turning to `CC(C)c1nnc(NC(=O)CN2C(=O)c3ccccc3NC2C(C)C)s1` (stereo unspecified), the cytotoxicity at 70.5 h was -13%. As for `CCN1CCO[C@@H]2CN(C(=O)COC3CCCC3)C[C@@H]2C1`, the cytotoxicity at 70.5 h is 7.26%. As to `CCc1nc(NS(=O)(=O)c2cc(C)cc(F)c2)no1`, the cytotoxicity at 70.5 h is -0.337%. With `Cc1nc(N)nc(N2CCOc3ccc(CO)cc3C2)c1C` the figure was 25.5%. For `Cn1nc(C2CN(C(=O)c3ccncc3)C2)c2nccnc21`, the cytotoxicity at 70.5 h was determined as 13.9%. With `CC1CCCN(Cc2c(C3CCOCC3)[nH]c3ncccc23)C1` (stereo unspecified), the cytotoxicity at 70.5 h worked out at 26.7%. Take `O=C(NCCc1cccs1)N1CCC[C@H]1CO`: the cytotoxicity at 70.5 h was -6.62%. Regarding `CCCOc1cc(C)c2c(c1C)C[C@H]([C@H](C)C(=O)O)CC2`, the cytotoxicity at 70.5 h is -3.42%. Turning to `Cc1cncc(C2CCCN2CC(N)=O)n1` (stereo unspecified), the cytotoxicity at 70.5 h is -2.96%.

Consider `Cc1[nH]ccc1C(=O)N1CCC2(CC1)c1nc[nH]c1CCN2S(C)(=O)=O`, for which the cytotoxicity at 70.5 h was -4.51%.

With `Cc1occc1C(=O)N1C[C@@H]2CCCO[C@@H]2[C@H](NS(C)(=O)=O)C1`, the cytotoxicity at 70.5 h is -1.97%. Consider `Cn1cccc1C(=O)NC[C@H]1C[C@@H]2CN(C(=O)c3ccco3)C[C@@H]2O1`, for which the cytotoxicity at 70.5 h was -1.72%. Consider `Cc1ccc2c(CC(=O)N(C)CCN(C)C)c(C)[nH]c2c1C`, for which the cytotoxicity at 70.5 h stood at 2.2%.

As to `O=C(C1=CCCC1)N1CCO[C@H]2[C@@H](OCC3CC3)CC[C@@H]21`, the cytotoxicity at 70.5 h was -17.4%.

With `O=c1[nH]c(NCc2cccc(OC(F)F)c2)nc2c1CCNC2`, the cytotoxicity at 70.5 h is -23.8%. With `CN1CCCN(C(C(=O)O)c2ccc3c(c2)OCO3)CC1` (stereo unspecified), the cytotoxicity at 70.5 h came to 0.827%. Take `Cc1cc(C)n(CC2CN(Cc3ccc4c(c3)OCCO4)CCO2)n1` (stereo unspecified): the cytotoxicity at 70.5 h is -3.91%. On to `Cc1ccc(NCc2ccc(C#N)cc2)c(CN(C)C)c1`, for which the cytotoxicity at 70.5 h was found to be 15.8%. Consider `CC(NC(=O)N(C)Cc1ccsc1)c1ccc2c(c1)NC(=O)CO2` (stereo unspecified), for which the cytotoxicity at 70.5 h is -9.52%. Take `CC(C)c1nnc2n1CCN(C(=O)c1ccccc1OCC1CC1)C2`: the cytotoxicity at 70.5 h is -4.61%. In the case of `COc1cc(N2CCC3(CCN(Cc4cccnc4)C3=O)C2)ncn1` (stereo unspecified), the cytotoxicity at 70.5 h is -4.34%.

In the case of `Cn1cc(C(C)(O)CNC(=O)c2cc(Br)cn2C)cn1` (stereo unspecified), the cytotoxicity at 70.5 h turned out to be 7.26%. With `CCc1ccc(CN(CC)Cc2ccc(S(=O)(=O)NC)cc2)cc1` the figure was -1.74%; with `CCc1nc(C(=O)N2CCN(CC)CC2)nn1-c1ccccc1Cl`, 11.3%. For `Cn1cc(C(=O)NCc2cncc3c2CCN(S(C)(=O)=O)C3)cn1`, the cytotoxicity at 70.5 h came out at 0.567%. The result for `CCCC(=O)N(CCCN1CCOCC1)c1nc2c(Cl)cccc2s1` reads 1.41%; that for `CC(Cn1cccn1)NCc1nc(-c2ccccn2)no1` (stereo unspecified), -11.1%; that for `CN(CCCc1nccn1C)c1nccc(-c2cc(C(=O)O)ccn2)n1`, -3.33%. For the compound `CCOC(C)C(=O)N1CCN(S(C)(=O)=O)CC1` (stereo unspecified), the cytotoxicity at 70.5 h was -112%. `Cc1cc(CNc2nccc(N)n2)c2[nH]c(C)c(C)c2c1`: the cytotoxicity at 70.5 h was 1.64%. For the compound `Cc1cc(Cl)ccc1NCc1ccc(C(=O)N(C)C)[nH]1`, the cytotoxicity at 70.5 h was -4.01%. Turning to `CC(C)(C)c1nc(CNC(=O)N2CCc3ccccc3C2CO)no1` (stereo unspecified), the cytotoxicity at 70.5 h was -2.31%.

`O=C(CSCCN1CCOCC1)N1CCCCCC1`: the cytotoxicity at 70.5 h was 29.9%. For `Cc1cc(C)n(CC2CCCCN2CCCS(=O)(=O)N(C)C)n1` (stereo unspecified), the cytotoxicity at 70.5 h amounted to 1.93%. In the case of `CN(c1ccc(F)c(F)c1)S(=O)(=O)c1cc2c(c(C(=O)O)c1)OCCO2`, the cytotoxicity at 70.5 h was -7.51%. For `Cc1cnn(CCNCC(=O)NC(c2ccccc2)c2ccccc2)c1`, the cytotoxicity at 70.5 h was -16%.

In the case of `Cc1ccc(C)c(-n2ccc3nc(N4CCCC4)ncc3c2=O)c1`, the cytotoxicity at 70.5 h is -7.78%. Consider `COCCNc1ncc(-c2onc(C)c2C)c(-c2ccco2)n1`, for which the cytotoxicity at 70.5 h was -5.67%.

As to `CN(C)c1nc2c(c(N3CCC(O)CC3)n1)CN(CC1CCOC1)CC2` (stereo unspecified), the cytotoxicity at 70.5 h was -3.69%.

Regarding `CC(CN1CCCC1=O)NC(=O)NCc1ccccc1-n1cccn1` (stereo unspecified), the cytotoxicity at 70.5 h is -11.4%. In the case of `CC(=O)NCCNC(=O)NCc1ccc(-n2ccc(C(F)(F)F)n2)cc1`, the cytotoxicity at 70.5 h was -6.79%. With `O=C(CN1CCC(OCC2CCCO2)CC1)NCC(F)(F)F` (stereo unspecified) the figure was -7.24%. The result for `CN(C)C(=O)CCCNc1ncc2c(n1)CCN2c1ccccc1` reads -7.97%. In the case of `CN1CCN(C(=O)c2ccc(Cn3cc(Br)cn3)cc2)CC1`, the cytotoxicity at 70.5 h is -5.22%. Consider `CN(Cc1ccc(F)cc1)S(=O)(=O)N1CCOCC1`, for which the cytotoxicity at 70.5 h is 6.44%.

Consider `Cc1noc(C)c1CC(=O)NCC(CC(C)C)N1CCOCC1` (stereo unspecified), for which the cytotoxicity at 70.5 h is -4.86%. `N#Cc1cn(C2CC2)c(=O)n(CC(O)c2ccc(OC(F)F)cc2)c1=O` (stereo unspecified): the cytotoxicity at 70.5 h was -17.5%. As for `O=C1NC[C@H]2CN(Cc3ccccn3)CCN12`, the cytotoxicity at 70.5 h is 0.693%. Turning to `Cc1csc(N2CCN(CC(=O)N3CCNC3=O)CC2C)n1` (stereo unspecified), the cytotoxicity at 70.5 h was determined as 12%. Take `COc1ccc2cnn(CC(=O)NC3CCCC3)c(=O)c2c1OC`: the cytotoxicity at 70.5 h stood at 2.71%.

Turning to `CC1CCCCN1C(=O)COCc1nc(-c2ccncc2)no1` (stereo unspecified), the cytotoxicity at 70.5 h amounted to 4.94%.

As to `O=S(=O)(NC1CCC12CCN(CC1CCOCC1)CC2)c1ccccc1` (stereo unspecified), the cytotoxicity at 70.5 h was -2.17%.

Regarding `Cc1nc(C)n(CCC(=O)NCC2CCCOC2)n1` (stereo unspecified), the cytotoxicity at 70.5 h was -0.994%. On to `c1cc(CN2C[C@@H]3OCCN(CC4CCCO4)[C@@H]3C2)co1` (stereo partly specified), for which the cytotoxicity at 70.5 h is -10.8%. For the compound `CCOc1ccccc1C(CC(=O)Nc1ccccc1F)NC(C)=O` (stereo unspecified), the cytotoxicity at 70.5 h is -6.84%. With `COc1ccc2cccc(CC(=O)NCCc3n[nH]c(=O)[nH]3)c2c1` the figure was -8.41%; with `Cc1ncncc1C(=O)NCCN1CCC(C)CC1`, 5.52%.
